# Reference: paper PMC2614347, “A Novel Peptide Enhances Therapeutic Efficacy of Liposomal Anti-Cancer Drugs in Mice Models of Human Lung Cancer” (PLoS ONE, 2009)
# Ends that are not written are not given here.
# How the values were obtained:
# NPC-TW01 cells = test: Phage binding, immunofluorescent staining; set-up: species or system human
# [1] = test system: surgical specimens of human lung cancer (pulmonary adenocarcinoma); test: Binding of phages and synthetic peptides to surgical specimens of lung cancer, immunohistochemistry
# Experimental: For localization of peptide binding on lung cancer tissues, frozen sections of NSCLC tissues were prepared and incubated with phage clones or biotin-labeled peptides. For the peptide competitive inhibition assay, phages were mixed with the synthetic targeting or mutant peptide. The slides were subjected to routine immunohistochemical staining, [30]. All surgical specimens were obtained from the tissue bank of National Taiwan University Hospital (NTUH) with approval from the Institutional Review Board in NTUH (IRB9461702021).
# PC13 cells [2] = test: Phage binding to cells, immunohistochemical staining; set-up: species or system human; settings: immunohistochemistry, anti-M13 mAb
# Experimental: (§1) Cells were plated and grown to about 80% confluence on cover slips. The cover slips were treated with 3% hydrogen peroxide plus 0.1% NaN3 to block endogenous peroxidase activity, and then incubated with phages. After the cover slips had been washed and fixed with 3% paraformaldehyde, they were incubated with HRP-labeled mouse anti-M13 mAb and treated with peroxidase substrate. For the peptide binding assays, 30 µg/ml FITC-labeled SP5-2 or control peptide was added on each cover slip and incubated. They were counterstained with Hoechst 33258 (Molecular Probes, OR, USA) and mounted with a mounting solution (Vector, CA, USA). The cells were then examined under a Leica universal microscope. The images were merged using the SimplePCI software (C-IMAGING, PA, USA).
# CL1-5 cells [3] = test: as above; set-up: species or system human; settings: immunohistochemistry, anti-M13 mAb
# Experimental: as §1
# oral cancer (SAS) cells = test: as above; set-up: species or system human; settings: immunohistochemistry, anti-M13 mAb
# Experimental: as §1
# [4] = test system: nasopharyngeal carcinoma cells (NPC-TW01); test: as above; set-up: species or system human; settings: immunohistochemistry, anti-M13 mAb
# Experimental: as §1
# [5] = test system: normal epithelial cells (NNM) from nasal mucosa; test: as above; set-up: species or system human; settings: immunohistochemistry, anti-M13 mAb
# Experimental: as §1
# NNM cells = test: Phage binding, flow cytometry; set-up: species or system human
# Experimental: (§2) The lung and other cancer cell lines were collected using PBS containing 50 mM EDTA, then incubated with phages or FITC-labeled peptides. For the peptide competitive inhibition assay, phages were mixed with different concentrations of the synthetic peptide and the mixture was incubated with the cells. After washing, the phage-bound cells were incubated with anti-M13 mAbs and then treated with FITC-conjugated goat anti-mouse IgG antibody. Cells were washed and analyzed with a flow cytometer (Becton Dickinson)
# (§3) Fig. S2. The binding activity of PC5-2 to NSCLC cells was analyzed by flow cytometry. The samples included cells only (a, green), control phage (b, red), and PC5-2 (blue). The percentages indicate the fraction of cells gated for positive binding (c).
# SAS cells = test: Phage binding, flow cytometry; set-up: species or system human
# Experimental: as §2, §3
# CL1-5 cells [6] = test: Phage binding and peptide competition, flow cytometry; set-up: species or system human; settings: fraction of cells gated for positive binding
# Experimental: as §2, §3
# CL1-5-derived tumors = test: In vivo homing and tissue distribution of phages; set-up: species or system SCID mice
# Experimental: SCID mice were injected subcutaneously (s.c.) in the dorsolateral flank with 1×10^7 human NSCLC cells. The mice bearing size-matched lung cancer xenografts (approximately 500 mm^3) were injected i.v. with 10^9 pfu of the targeting or control phage. After perfusion, xenograft tumors and mouse organs were removed and homogenized. The phages bound to each tissue sample were recovered through the addition of ER2738 bacteria and titered on IPTG/X-Gal agar plates. In the peptide competitive inhibition experiments, the phages were injected along with 100 µg synthetic targeting peptide, control peptide or mutant peptide. The organs and tumor masses were fixed in Bouin's solution (Sigma, MO, USA). After fixation, the samples were embedded in paraffin blocks. The paraffin sections were deparaffinized, rehydrated, and subjected to immunostaining using the mouse M13 mAb as described above.
# PC13 cells [7] = test system: PC13 cells
# Experimental: (§4) FITC-labeled SP5-2 binding to NSCLC cells was analyzed by flow cytometry.
# CL1-5 cells [8] = test system: CL1-5 cells
# Experimental: as §4
# CL1-5-derived xenografts = test: Ligand-targeted therapy of lung cancer xenografts; type: in vivo, SCID mice; settings: doxorubicin 1 mg/kg i.v. twice a week, eight injections; n = 6
# Experimental: Mice 4–6 weeks of age were injected s.c. in the dorsolateral flank with human NSCLC cells. […] Mouse body weights and tumor sizes were measured twice a week. Tumor volumes were calculated using the equation: length×(width)^2×0.52. Animal care was carried out in accordance with guidelines of Academia Sinica, Taiwan.
# H460-derived xenografts = test: Ligand-targeted therapy of lung cancer xenografts; type: in vivo, SCID mice; settings: doxorubicin 1 mg/kg i.v. twice a week, eight injections
# [9] = Pharmacokinetic and biodistribution study of doxorubicin formulations; type: in vivo, SCID mice; settings: 2 mg/kg i.v., n = 3 per time point
# Experimental: At selected time points, three mice in each group were anaesthetized and sacrificed. Blood samples were collected through submaxillary punctures, and plasma samples were prepared. After perfusion, xenograft tumors and mouse organs were removed and homogenized.
# NSCLC xenografts = test: Doxorubicin autofluorescence microscopy of tumor sections; type: in vivo, SCID mice; settings: fluorescence microscope; 1, 4 and 24 hours post-injection
# Excerpt: Tissue sections were imaged with a FLUAR 10×/0.50 NA lens and captured with a Roper Scientific CoolSnap HQ CCD camera. All images were captured in 8-bit signal depth and subsequently pseudo-colored.
# Experimental for A549 cells: as §4
# Experimental for H23 cells: as §4
# Experimental for H460 cells: as §4
molecule,measurement,setting,value
TDSILRSYDWTY [PC5-2],Binding of phage to NPC-TW01 cells,NPC-TW01 cells,did not bind
same,Recognition of tumor cells of NSCLC surgical specimens,[1]; frozen sections,recognized
same,"Reaction area, HLC 1",[1]; human lung cancer surgical specimen HLC 1,+++ (>50%)
same,"Reaction area, HLC 2",[1]; human lung cancer surgical specimen HLC 2,+++ (>50%)
same,"Reaction area, HLC 3",[1]; human lung cancer surgical specimen HLC 3,- (0%)
same,"Reaction area, HLC 4",[1]; human lung cancer surgical specimen HLC 4,+ (<20%)
same,"Reaction area, HLC 5",[1]; human lung cancer surgical specimen HLC 5,+++ (>50%)
same,"Reaction area, HLC 6",[1]; human lung cancer surgical specimen HLC 6,++ (50~20%)
same,"Reaction area, HLC 7",[1]; human lung cancer surgical specimen HLC 7,++ (50~20%)
same,"Reaction area, HLC 8",[1]; human lung cancer surgical specimen HLC 8,++ (50~20%)
same,"Reaction area, HLC 9",[1]; human lung cancer surgical specimen HLC 9,+ (<20%)
same,"Reaction area, HLC 10",[1]; human lung cancer surgical specimen HLC 10,- (0%)
same,"Reaction area, HLC 11",[1]; human lung cancer surgical specimen HLC 11,++ (50~20%)
same,"Reaction area, HLC 12",[1]; human lung cancer surgical specimen HLC 12,++ (50~20%)
same,"Reaction area, HLC 13",[1]; human lung cancer surgical specimen HLC 13,+ (<20%)
same,"Reaction area, HLC 14",[1]; human lung cancer surgical specimen HLC 14,- (0%)
same,"Reaction area, HLC 15",[1]; human lung cancer surgical specimen HLC 15,+++ (>50%)
same,"Reaction area, HLC 16",[1]; human lung cancer surgical specimen HLC 16,- (0%)
same,"Reaction area, HLC 17",[1]; human lung cancer surgical specimen HLC 17,- (0%)
same,"Reaction area, HLC 18",[1]; human lung cancer surgical specimen HLC 18,++ (50~20%)
same,"Reaction area, HLC 19",[1]; human lung cancer surgical specimen HLC 19,+++ (>50%)
same,"Reaction area, HLC 20",[1]; human lung cancer surgical specimen HLC 20,+++ (>50%)
same,"Reaction area, HLC 21",[1]; human lung cancer surgical specimen HLC 21,++ (50~20%)
same,"Reaction area, HLC 22",[1]; human lung cancer surgical specimen HLC 22,- (0%)
same,"Reaction area, HLC 23",[1]; human lung cancer surgical specimen HLC 23,- (0%)
same,"Reaction area, HLC 24",[1]; human lung cancer surgical specimen HLC 24,++ (50~20%)
same,"Reaction area, HLC 25",[1]; human lung cancer surgical specimen HLC 25,+++ (>50%)
same,"Reaction area, HLC 26",[1]; human lung cancer surgical specimen HLC 26,+++ (>50%)
same,"Reaction area, HLC 27",[1]; human lung cancer surgical specimen HLC 27,+ (<20%)
same,"Reaction area, HLC 28",[1]; human lung cancer surgical specimen HLC 28,++ (50~20%)
same,"Reaction area, HLC 29",[1]; human lung cancer surgical specimen HLC 29,- (0%)
same,"Reaction area, HLC 30",[1]; human lung cancer surgical specimen HLC 30,++ (50~20%)
same,"Reaction area, HLC 31",[1]; human lung cancer surgical specimen HLC 31,++ (50~20%)
same,"Reaction area, HLC 32",[1]; human lung cancer surgical specimen HLC 32,- (0%)
same,"Reaction area, HLC 33",[1]; human lung cancer surgical specimen HLC 33,++ (50~20%)
same,"Reaction area, HLC 34",[1]; human lung cancer surgical specimen HLC 34,+++ (>50%)
same,"Reaction area, HLC 35",[1]; human lung cancer surgical specimen HLC 35,+ (<20%)
same,"Reaction area, HLC 36",[1]; human lung cancer surgical specimen HLC 36,++ (50~20%)
same,Binding of phage to PC13 cells,PC13 cells [2],bound specifically
same,Binding of phage to CL1-5 cells,CL1-5 cells [3],bound specifically
same,Binding of phage to SAS cells,oral cancer (SAS) cells,bound neither
same,Binding of phage to NPC-TW01 cells,[4],bound neither
same,Binding of phage to NNM cells,[5],nor to normal epithelial cells
same,Binding of phage to NNM cells,NNM cells,did not bind
same,Binding of phage to SAS cells,SAS cells,did not bind
same,CL1-5 cells bound by phage,CL1-5 cells [6],42.6%
same,Immunohistochemical localization of phage in normal organs after i.v. injection,"CL1-5-derived tumors; brain, heart and lung tissues",no reaction product detected
same,Phage concentration in tumor masses relative to control organs,"CL1-5-derived tumors; i.v. 10^9 pfu, recovered after perfusion, control organs brain, heart and lungs",15 fold
same,Immunohistochemical localization of phage in tumor tissues after i.v. injection,"CL1-5-derived tumors; tumor sections, anti-M13 mAb",localize in tumor tissues
TDSILRSYDWTY [SP5-2],Proportion of H23 cells bound by SP5-2,H23 cells,44.0%
same,Proportion of H460 cells bound by SP5-2,H460 cells,45.8%
same,Proportion of A549 cells bound by SP5-2,A549 cells,44.3%
same,Proportion of PC13 cells bound by SP5-2,PC13 cells [7],20.1%
same,Proportion of CL1-5 cells bound by SP5-2,CL1-5 cells [8],43.0%
"DMPKQLLAPWYY [PC5-4, phage clone displaying […]]",Recovery of PC5-4 phage from tumor versus control organs,"CL1-5-derived tumors; i.v., recovered after perfusion, SCID mice bearing NSCLC xenografts (Fig. S4)",higher than from control organs
"COc1cccc2c1C(=O)c1c(O)c3c(c(O)c1C2=O)C[C@@](O)(C(=O)CO)C[C@@H]3O[C@H]1C[C@H](N)[C@H](O)[C@H](C)O1 [FD, doxorubicin]",Tumor size smaller than that in the PBS group,CL1-5-derived xenografts,16%
same,Reduction of tumor size compared with PBS group,H460-derived xenografts,14%
same,Blood concentration of doxorubicin after administration,"[9]; tail vein, spectrofluorometry",drops to background level within one hour
same,"AUC0-48 h, Nuclear",[9]; nuclear doxorubicin in tumor,3.7 μg h/g tumor
same,AUC0–48 hours of bioavailable doxorubicin (bound to nuclei),"[9]; tumor cell nuclei, spectrofluorometry",3.7 µg·h/g
same,Areas of tumor sections with detectable doxorubicin,NSCLC xenografts,no detectable doxorubicin
